Reference: patent US12037354B2, “Cyclic pantetheine derivatives and uses thereof” (VectivBio Comet AG, priority 2018, dated 2024)

System: Pkd1-/- mouse inner medullary collecting duct cells (mIMRFNPKD 5E4)
Assay: mPKD 3D cyst swelling assay (forskolin-induced), Example 818
Format: cell-based
Conditions: 50 uM, after 72 hours of forskolin exposure
Protocol: Cell model and control compounds. mIMCD3 WT cells were obtained via ATCC and modified to create the mIMRFNPKD 5E4 cell line, which has a CRISPR-Cas mediated knockout for Pkd1 as described SLAS Discov. 2017 September; 22(8):974-984. doi: 10.1177/2472555217716056. Cells were cultured in DMEM/F12 (Sigma)+10% FBS (Sigma)+0.5% Pen/Strep (Gibco)+1% GluMax (Gibco). Control compounds used were forskolin (Calbiochem, 344282), Rapamycin (Selleckchem, S1039) and Staurosporin (Selleckchem, S1421).
The 3D mouse cyst swelling assay was performed with Pkd1^−/− mouse inner medullary collecting duct cells (mIMRFNPKD 5E4). The cyst swelling protocol that was used was described previously (SLAS Discov. 2017 September; 22(8):974-984. doi: 10.1177/2472555217716056), with further optimization.
3D culture and compound exposure. mIMRFNPKD 5E4 cells were mixed with Cyst-Gel (OcellO BV). 15 μL of cell-gel mix was pipetted to 384-well plates (Greiner μClear, Greiner Bio-One B.V.) using a CyBio Felix 96/60 robotic liquid dispenser (Analyik Jena AG). […]
Imaging and image analysis. […] Cyst area was determined by calculating for the area in px of each object in every in-focus plain. […] (N represented is number of wells) Fraction of apoptotic nuclei as an indicator of toxicity was calculated as the amount of nuclei without actin signal relative to the total amount of nuclei, both as count-measurements. […]

COC(=O)/C=C/C(=O)SCCNC(=O)CCNC(=O)[C@@H]1OP(=O)(O)OCC1(C)C [Compound 21]
% prevention of forskolin-induced cyst swelling: ≥10%
